Measurements from article PMC4788259 (PLoS Neglected Tropical Diseases, 2016).

System: E. multilocularis metacestodes
Assay: PGI assay: phosphoglucose isomerase release from damaged metacestodes
Format: cell-based, Echinococcus multilocularis
Settings: 10 μM, 5 days, single wells, relative to DB1127 (10 μM)
Experimental: The preparation of E. multilocularis metacestode material (strain H95) from intraperitoneally (i.p.) infected BALB/c mice was performed as described earlier. Metacestode vesicles were used for in vitro drug screening when they reached 2 to 4 mm in diameter.
For screening of the Malaria Box against E. multilocularis metacestodes, the PGI screening assay was applied that measures the release of the enzyme phosphoglucose isomerase (PGI) upon physical impairment of metacestodes. The screening setup was done in 24 well plates as described by Stadelmann et al. For initial screening, each drug was applied at 10 μM to metacestodes in single wells. As a positive control-drug, the dicationic diguanidino compound DB1127 (10 μM) was used and 0.1% DMSO was added as negative control. Metacestodes were cultured in the presence of the compounds for 5 days, after which PGI release was quantified exactly as stated in Stadelmann et al. […] Averages, standard deviations and EC50 values were calculated in Microsoft Excel 2010.

Compound	PGI (% of DB1127 at 10 uM)
O=C(O)C1Cc2c([nH]c3ccccc23)C(c2ccc(Cl)cc2Cl)N1 (centres unmarked) [MMV008138]	-14.05%
Cc1c(C)n(Cc2ccc(F)cc2)c2ccc(C(=O)NCc3ccco3)cc12 [MMV008149]	-33.19%
CN1C=C(c2ccc3ccccc3n2)C(c2c[nH]c3ccccc23)c2ccccc21 (centres unmarked) [MMV008160]	-2.32%
COc1cc(OC)cc(N2C(=O)N(Cc3ccc(C(C)(C)C)cc3)c3ccccc3S2(=O)=O)c1 [MMV008173]	-29.78%
COc1ccc2nc(C)cc(Nc3cccc(O)c3)c2c1.Cl [MMV008212]	-12.96%
CCOC(=O)c1cnc2c(C)cc(C)cc2c1Nc1ccc(OC)c(OC)c1 [MMV008294]	-43.41%
CCCc1c(CC)c(=N)c2ccccc2n1C [MMV008416]	-40.39%
COc1ccc(C2C(C(=O)Nc3cccc(OC)c3)c3ccccc3C(=O)N2C2CCCCC2)cc1 (centres unmarked) [MMV008455]	-12.94%
CCN1CCN(c2c(C(=O)c3ccccc3)cnc3cc(OC)c(OC)cc23)CC1 [MMV008474]	-15.22%
CCCn1c(=N)c(C(=O)NC2CCCCC2)cc2c(=O)n3cccc(C)c3nc21 [MMV008829]	-2.96%
CCOc1cc2c(cc1OCC)C(c1cc(OC)c(O)cc1Cl)NCC2 (centres unmarked) [MMV008956]	-28.84%
O=C(CCc1ccccc1)c1ccccc1OCC(O)CN1CCCCC1 (centres unmarked) [MMV009015]	4.79%
CCN(CC)c1ccc(NC(=O)c2cccs2)cc1 [MMV009060]	-36.82%
OC(CNC1CCCCC1)Cn1c2ccccc2c2ccccc21 (centres unmarked) [MMV009063]	29.02%
O=C1c2ccc3c4c(ccc(c24)C(=O)N1CCCCO)C(=O)N(CCCCO)C3=O [MMV009085]	-6.63%
Br.CCN(CC)S(=O)(=O)c1ccc(-c2csc(Nc3ccc(C)c(C)c3)n2)cc1 [MMV009108]	14.04%
CC1CCN(Cc2c(O)ccc3cc(-c4nc5ccccc5s4)c(=O)oc23)CC1 [MMV009127]	0.35%
Cc1cc(Nc2ccc3ccccc3c2)n2ncnc2n1 [MMV011099]	-50.58%
Cc1cc(Nc2ccc(Cl)cc2)n2nc(C(F)(F)F)nc2n1 [MMV011256]	-32.20%
Cc1cc(C)cc(Nc2cc(C)nc3nc(C(F)(F)F)nn23)c1 [MMV011259]	-21.18%
Cc1ccc(Nc2nc(N)c3ccccc3n2)cc1Cl [MMV011522]	12.79%
COc1ccc(C(=O)Nc2nonc2-c2ccc(OC)c(OC)c2)cc1Cl [MMV011567]	-5.45%
CCOC(=O)C1CCN(C(=O)CN2C(=O)c3ccccc3C2c2c[nH]c3ccccc23)CC1 (centres unmarked) [MMV011576]	-33.19%
O=C(O)C(=O)O.Oc1ccccc1CN1CCN(C(c2ccccc2)c2ccccc2)CC1 [MMV011795]	-19.79%
Oc1ccc2ccccc2c1CNc1nc2ccccc2[nH]1 [MMV011832]	34.82%
COc1cccc(Nc2nc(NCCO)c3ccccc3n2)c1.Cl [MMV011944]	15.53%

Compound	PGI (% of DB1127 at 10 uM)
Cc1cc(NC(=O)c2ccc(-c3ccccc3)cc2)no1 [MMV018984]	6.32%
COCCNCC(O)Cn1c2ccc(Cl)cc2c2cc(Cl)ccc21 (centres unmarked) [MMV019017]	20.81%
COc1cccc(-c2nn(C)c3sc(C(=O)NCCN4CCN(c5ccccc5F)CC4)cc23)c1 [MMV019064]	-17.87%
COc1ccccc1CNC(=O)CCn1c(=O)[nH]c2ccsc2c1=O [MMV019066]	-44.92%
CCN1CCN(c2cc(C)c3cc(NC(=O)c4ccc(OC)c(OC)c4)ccc3n2)CC1 [MMV019074]	-7.35%
Cc1cccc(Nc2nc(N)c3ccccc3n2)c1.Cl [MMV019110]	-9.63%
CCN(Cc1ccccc1)C1CCN(Cc2cc(Br)ccc2O)CC1.O=C(O)C(=O)O [MMV019127]	-5.90%
COc1cccc(Nc2nc(N)c3ccccc3n2)c1.Cl [MMV019199]	-26.29%
CCOc1cccc(C(=O)Nc2ccc(-c3nc4ccccc4[nH]3)cc2)c1 [MMV019202]	-27.17%
O=C(Nc1ccc(-c2nc3cc4ccccc4cc3[nH]2)cc1)c1cccc(Br)c1 [MMV019241]	-30.92%
COc1ccc(-n2ccnc2SCC(=O)Nc2cc(C)ccc2C)c(OC)c1 [MMV019258]	-33.26%
Cc1sc2ncnc(Sc3nc4ccccc4[nH]3)c2c1C [MMV019266]	-32.46%
Cn1c(=O)c2cc(C(=O)NCCCN3CCCCCC3)sc2c2ccccc21 [MMV019313]	-53.66%
CCC1(C)CC(CCNCc2ccccc2O)(c2ccc(C)cc2)CCO1 (centres unmarked) [MMV019406]	-21.13%
Cl.c1ccc2c(NCCCCCCNc3c4c(nc5ccccc35)CCCC4)c3c(nc2c1)CCCC3 [MMV019555]	-3.16%
COc1ccc(N2CCN(C(CNC(=O)C3CCCCC3)c3ccc4c(c3)OCO4)CC2)cc1 (centres unmarked) [MMV019662]	-7.72%
O=C(Nc1ccc(N2CCN(Cc3ccccc3)CC2)cc1)c1cccs1.O=C(O)C(F)(F)F [MMV019670]	-9.43%
COc1ccc(C2NCCc3c2[nH]c2ccccc32)cc1CN1CCN(c2ccc(F)cc2)CC1.Cl (centres unmarked) [MMV019690]	51.28%
O=C(Nc1ccc(N2CCCCC2)c(Cl)c1)c1ccc(Br)o1 [MMV019700]	-40.52%
Cc1[nH]c(-c2ccc(F)cc2)cc1C(=O)NC1CCN(Cc2ccccc2)CC1 [MMV019738]	12.98%
Cc1ccc(C)c(Cn2c(N3CCC(C(=O)NCc4cccs4)CC3)nc3ccccc32)c1 [MMV019741]	-17.48%
Cc1ccc(Cl)cc1N1CCN(CCCNC(=O)C2CCN(c3nc4ccccc4[nH]3)CC2)CC1 [MMV019746]	-24.98%
COc1ccc(C(=O)Nc2ccc3nc(N4CCCCC4)cc(C)c3c2)cc1OC [MMV019758]	-36.67%
COc1cccc(C(=O)Nc2ccc(-c3nc4ccccc4[nH]3)cc2)c1 [MMV019762]	-25.80%
Cc1cc(C)c2nc(N3CCC(C(=O)NCCCN4CCC(N5CCCCC5)CC4)CC3)sc2c1 [MMV019780]	36.03%
Fc1ccc2[nH]c3c(NCCCN4CCOCC4)ncnc3c2c1 [MMV019871]	-31.05%

Compound	PGI (% of DB1127 at 10 uM)
O=C(NC1CCN(Cc2ccccc2)CC1)c1cc(C(=O)NC2CCN(Cc3ccccc3)CC2)cc(C(=O)NC2CCN(Cc3ccccc3)CC2)c1 [MMV019881]	9.54%
Cl.Clc1cc(Br)ccc1-c1ccc(CNCC2CCNCC2)o1 [MMV019918]	-10.89%
O=C(NCCCN1CCC(N2CCCCC2)CC1)C1=Cc2cc(Br)ccc2OC1 [MMV019995]	11.48%
Cc1cc(N(C)C)nc(Nc2ccc(NC(=O)Nc3ccccc3)cc2)n1 [MMV020243]	0.64%
O=C(NC1CCN(Cc2ccccc2)CC1)c1cc(-c2ccncc2)nc2ccc(Cl)cc12 [MMV020275]	-18.74%
COc1ccc(-c2cn3c(C(=O)Nc4ccccc4Cl)c(-c4ccccc4)c4c3n2CCCC4)cc1 [MMV020403]	8.35%
CCn1c(CN2CCN(Cc3ccccc3)CC2)nc2cc(NC(=O)c3cccs3)ccc21 [MMV020439]	-13.64%
O=C(NC1CCN(Cc2ccccc2)CC1)c1cc(-c2cccnc2)nc2ccc(Cl)cc12 [MMV020490]	-15.64%
CC1CN(C(=O)c2sc3ccccc3c2Cl)CC(C)O1 (centres unmarked) [MMV020492]	-44.30%
CNCCCNc1ccnc2cc(Cl)ccc12 [MMV020500]	-31.62%
CN(C)CCCNCc1ccc(-c2ccc(F)c(Cl)c2)o1.Cl [MMV020505]	-8.77%
CCN1CCN(Cc2ccc(NC(=O)c3cc4ccc5cccnc5c4[nH]3)cc2)CC1 [MMV020548]	-26.47%
CC1CCN(Cc2ccc(NC(=O)c3cc4ccc5cccnc5c4[nH]3)cc2)CC1 [MMV020549]	-59.67%
O=C(Nc1ccc(CN2CCOCC2)cc1)c1ccc(-c2cc(Cl)ccc2Cl)o1 [MMV020651]	-24.05%
CCC(O)c1ccc(Br)cc1NC(=O)c1cccc(Cl)c1 (centres unmarked) [MMV020654]	-1.89%
COc1ccc(-c2nonc2NC(=O)c2cccc(Cl)c2)cc1OC [MMV020660]	-20.61%
CC(=O)Nc1nnc(SCc2c(C)cc(C(C)(C)C)cc2C)s1 [MMV020700]	1.07%
COc1cc(-c2nc(-c3ccccc3)c(-c3ccccc3)[nH]2)cc(OC)c1O [MMV020750]	7.02%
Cl.Oc1ccccc1CNCC12CC3CC(CC(C3)C1)C2 [MMV020788]	-57.58%
COc1ccc(Br)cc1C1Nc2ccc3ccccc3c2C2=C1C(=O)CC(c1ccccc1)C2 (centres unmarked) [MMV020885]	-45.01%
Cc1ccc(-c2nc3ccccc3o2)cc1NCc1cc(Cc2ccccc2)ccc1O [MMV020912]	-2.94%
CCC(=O)Nc1nnc(Cc2ccc(OC)c(OC)c2)s1 [MMV020942]	-6.11%
COc1cc(SC)ccc1C(=O)N1CCCC(C)C1 (centres unmarked) [MMV056726]	16.15%
CN(C)c1ccc(N=Cc2ccc(N3CCOCC3)cc2)cc1 [MMV073843]	-14.14%
CCOc1ccc(C2N(C)c3ccccc3N2C)cc1 [MMV075490]	26.52%
